Experimental data published in patent US11331289B2, “Antimicrobial composition” (priority 2017, dated 2022).
Read-outs that look alike come from different tables or passages of the source.

How the values were obtained:
[1] = system: Staphylococcus aureus no 16302 and no 16315; assay: MIC of Oxyclozanide, broth microdilution method; type: cell-based
Description: (§1) In this study, 2 Staphylococcus aureus and 2 Staphylococcus pseudintermedius were tested. These strains were chosen after determination of the Minimum Inhibitory Concentration (MIC) of Oxyclozanide using broth microdilution method.

[2] = system: Staphylococcus pseudintermedius no 15401 and no 15410; assay: MIC of Oxyclozanide, broth microdilution method; type: cell-based
Description: as §1

[3] = system: MRSP 16127; assay: Time-killing curve, inoculum 5.10^5 CFU/ml (MIC 0.25 μg/ml); type: cell-based, Staphylococcus pseudintermedius
Description: (§2) The objective of this study is to assess in vitro the time-killing curves of oxyclozanide against four strains of Methicillin-Resistant Staphylococcus from dogs.
(§3) Two Methicillin-Resistant Staphylococcus aureus (MRSA) and two Methicillin-Resistant Staphylococcus pseudintermedius (MRSP) isolated from the clinics have been tested.
(§4) The assessment of time-killing curves has been realized by a broth macrodilution method (Mueller-Hinton II Broth).
(§5) Oxyclozanide is diluted in (DMSO) into sterile tubes in order to obtain the following concentrations from 800 to 6.25 μg/ml. Those concentrations and stock standard solution are then diluted (1/10) in Mueller-Hinton II Broth in order to obtain the following concentrations from […] (See Table 2).
(§6) Each operation is performed under sterile conditions. Each working standard solution (10*the final active ingredient concentration) is distributed in tubes (1 ml, for a final volume of 10 ml after addition of 9 ml of inoculum). One tube without active ingredient is used as growth control (Concentration=0).
(§7) Bacterial isolates are sub-cultured from one cryobead on Columbia agar supplemented with 5% of blood. Pure cultures are incubated during 18-24 hours at 37° C. Three to five isolated colonies of similar appearance are selected from a previous culture and transferred into tubes containing 9 ml of Mueller-Hinton II Broth. The broth is incubated during 12-18 hours at 37° C. 0.5 to 1 ml of this broth is inoculated to another Mueller-Hinton II Broth 9 ml tube which is incubated during 3 to 4 hours at 37° C. to reach the exponential growth phase. The bacterial inoculum grown exponential phase is suspended to an optical density of McFarland standard scale 0.5 equivalent to a bacterial density of 10^8 CFU/ml and then adjusted to a concentration of about 5.10^5 CFU/ml as indicated by the guideline CLSI M26-A and to a second inoculum tested: 10^6 CFU/ml.
(§8) 9 ml of bacterial inoculum grown to exponential phase is added to 1 ml of active ingredient (or Mueller Hinton II Broth for the growth control). Tubes are incubated at 35° C. during 24 hours.
(§9) At times 0, 2, 4, 6 and 24 hours, 100 μl of broth of each tube is sampled and diluted in microplates:
(§10) Each well is re-cultured by streaking 10 μl on Columbia agar supplemented with 5% of blood. Plates are incubated at 37° C. during 18-24 hours incubation. Thus, residual bacterial concentrations are determined (CFU/ml). Results are expressed in log10 values of CFU/ml over-time in broth. Due to the procedure used, the minimal bacterial concentration that can be assessed is 10^2 CFU/ml.

[4] = system: MRSA 16110; assay: Time-killing curve, inoculum 10^6 CFU/ml (MIC 1 μg/ml); type: cell-based, Staphylococcus aureus
Description: as §2, §3, §4, §5, §6, §7, §8, §9, §10

O=C(Nc1cc(Cl)cc(Cl)c1O)c1c(O)c(Cl)cc(Cl)c1Cl [Oxyclozanide]
MIC ([1]; Staphylococcus aureus, no 16302, read-out: MIC): 0.5 µg/mL | MIC ([1]; no 16315): 0.5 µg/mL | MIC ([2]; Staphylococcus pseudintermedius, no 15401, read-out: MIC): 0.125 µg/mL | MIC ([2]; no 15410): 0.125 µg/mL | Counting results ([3]; 1 MIC, 0 h): 3.600E+05 CFU/ml | Counting results ([3]; 1 MIC, 2 h): 2.300E+05 CFU/ml | Counting results ([3]; 1 MIC, 4 h): 1.900E+06 CFU/ml | Counting results ([3]; 1 MIC, 6 h): 4.600E+06 CFU/ml | Counting results ([3]; 1 MIC, 24 h): 8.100E+08 CFU/ml | Counting results ([3]; 2 MIC, 0 h): 3.600E+05 CFU/ml | Counting results ([3]; 2 MIC, 2 h): 2.000E+05 CFU/ml | Counting results ([3]; 2 MIC, 4 h): 2.400E+05 CFU/ml | Counting results ([3]; 2 MIC, 6 h): 2.400E+05 CFU/ml | Counting results ([3]; 2 MIC, 24 h): 6.600E+05 CFU/ml | Counting results ([3]; 4 MIC, 0 h): 3.600E+05 CFU/ml | Counting results ([3]; 4 MIC, 2 h): 1.400E+04 CFU/ml | Counting results ([3]; 4 MIC, 4 h): 4.400E+03 CFU/ml | Counting results ([3]; 4 MIC, 6 h): 3.500E+03 CFU/ml | Counting results ([3]; 4 MIC, 24 h): 1.300E+03 CFU/ml | Counting results ([3]; 8 MIC, 0 h): 3.600E+05 CFU/ml | Counting results ([3]; 8 MIC, 2 h): 1.600E+03 CFU/ml | Counting results ([3]; 8 MIC, 4 h): 4.000E+02 CFU/ml | Counting results ([3]; 8 MIC, 6 h): 1.000E+02 CFU/ml | Counting results ([3]; 8 MIC, 24 h): 1.000E+02 CFU/ml | Counting results ([3]; 16 MIC, 0 h): 3.600E+05 CFU/ml | Counting results ([3]; 16 MIC, 2 h): 3.000E+02 CFU/ml | Counting results ([3]; 16 MIC, 4 h): 1.000E+02 CFU/ml | Counting results ([3]; 16 MIC, 6 h): 1.000E+02 CFU/ml | Counting results ([3]; 16 MIC, 24 h): 1.000E+02 CFU/ml | Time to obtain bactericidal effect at 4 MIC ([3]; 16127/5.10^5 CFU/ml, >=3 log10 decrease in CFU): 6 to 24 h | Counting results ([3]; ¼ MIC, 0 h): 3.600E+05 CFU/ml | Counting results ([3]; ¼ MIC, 2 h): 3.900E+05 CFU/ml | Counting results ([3]; ¼ MIC, 4 h): 5.900E+06 CFU/ml | Counting results ([3]; ¼ MIC, 6 h): 3.400E+07 CFU/ml | Counting results ([3]; ¼ MIC, 24 h): 2.900E+10 CFU/ml | Counting results ([3]; ½ MIC, 0 h): 3.600E+05 CFU/ml | Counting results ([3]; ½ MIC, 2 h): 3.300E+05 CFU/ml | Counting results ([3]; ½ MIC, 4 h): 2.700E+06 CFU/ml | Counting results ([3]; ½ MIC, 6 h): 2.400E+07 CFU/ml | Counting results ([3]; ½ MIC, 24 h): 2.900E+10 CFU/ml | Counting results ([4]; 1 MIC, 0 h): 2.000E+06 CFU/ml | Counting results ([4]; 1 MIC, 2 h): 8.300E+04 CFU/ml | Counting results ([4]; 1 MIC, 4 h): 3.400E+04 CFU/ml | Counting results ([4]; 1 MIC, 6 h): 3.500E+03 CFU/ml | Counting results ([4]; 1 MIC, 24 h): 7.900E+06 CFU/ml | Counting results ([4]; 2 MIC, 0 h): 2.000E+06 CFU/ml | Counting results ([4]; 2 MIC, 2 h): 4.000E+02 CFU/ml | Counting results ([4]; 2 MIC, 4 h): 2.000E+02 CFU/ml | Counting results ([4]; 2 MIC, 6 h): 1.000E+02 CFU/ml | Counting results ([4]; 2 MIC, 24 h): 1.000E+02 CFU/ml | Counting results ([4]; 4 MIC, 0 h): 2.000E+06 CFU/ml | Counting results ([4]; 4 MIC, 2 h): 1.000E+02 CFU/ml | Counting results ([4]; 4 MIC, 4 h): 1.000E+02 CFU/ml | Counting results ([4]; 4 MIC, 6 h): 1.000E+02 CFU/ml | Counting results ([4]; 4 MIC, 24 h): 1.000E+02 CFU/ml | Counting results ([4]; 8 MIC, 0 h): 2.000E+06 CFU/ml | Counting results ([4]; 8 MIC, 2 h): 1.000E+02 CFU/ml | Counting results ([4]; 8 MIC, 4 h): 1.000E+02 CFU/ml | Counting results ([4]; 8 MIC, 6 h): 1.000E+02 CFU/ml | Counting results ([4]; 8 MIC, 24 h): 1.000E+02 CFU/ml | Counting results ([4]; 16 MIC, 0 h): 2.000E+06 CFU/ml | Counting results ([4]; 16 MIC, 2 h): 2.000E+02 CFU/ml | Counting results ([4]; 16 MIC, 4 h): 1.000E+02 CFU/ml | Counting results ([4]; 16 MIC, 6 h): 1.000E+02 CFU/ml | Counting results ([4]; 16 MIC, 24 h): 1.000E+02 CFU/ml | Time to obtain bactericidal effect at 4 MIC ([4]; 16110/10^6 CFU/ml, >=3 log10 decrease in CFU): 2 h | Counting results ([4]; ¼ MIC, 0 h): 2.000E+06 CFU/ml | Counting results ([4]; ¼ MIC, 2 h): 8.000E+06 CFU/ml | Counting results ([4]; ¼ MIC, 4 h): 4.000E+07 CFU/ml | Counting results ([4]; ¼ MIC, 6 h): 2.400E+07 CFU/ml | Counting results ([4]; ¼ MIC, 24 h): 4.100E+07 CFU/ml | Counting results ([4]; ½ MIC, 0 h): 2.000E+06 CFU/ml | Counting results ([4]; ½ MIC, 2 h): 6.900E+05 CFU/ml | Counting results ([4]; ½ MIC, 4 h): 4.300E+06 CFU/ml | Counting results ([4]; ½ MIC, 6 h): 4.800E+07 CFU/ml | Counting results ([4]; ½ MIC, 24 h): 3.700E+07 CFU/ml
